Experimental data taken from US5661177A, “Zinc cysteate its preparation and uses in pharmacy and cosmetology” (Chimie et Biologie, priority 1988, dated 1997).
Entries after “also recorded” stand apart in the source; their conditions may differ. Where two headings read alike, the source gives them in different places.

Assays:
skin of Guinea Pig [1] = settings: TABLE I, cited from earlier work
[2] = tested on: Pityrosporum orbiculare 1219; experiment: Antifungic test, cylinders method (inhibition diameter); type: cell-based; settings: 72 hours at 37° C.
Method: (§1) CB 619 was tested against Pityrosporum orbiculare 1219 and Pityrosporum ovale 1363, both from the Pasteur Institute, in the Dixon's culture medium, modified by Randjandiche according to the following composition: 30 ml of culture medium were cast in each Petri dish of 90 mm of diameter. The inoculum was a 2 ml suspension of Pityrosporum containing 10,000,000 germs, 72 hours old, per ml. After drying at 37° C., tests were carried out according to discs method or to cylinders method. According to cylinders method, cylinders of 4 mm of diameter were excavated in gelose with a stainless steel tool, and 75 microliters of the solution of the tested product were introduced into each cylinder. According to both methods, the inhibition areas were measured after a time of incubation of 72 hours at 37° C. According to cylinders method, Intrinsic Inhibition Power of CB 619 is, the inhibition diameter being given in mm: […]

Pityrosporum ovale 1363 [3] = experiment: as above; type: cell-based; settings: 72 hours at 37° C.
Method: as §1

[4] = tested on: Pityrosporum orbiculare 1219; experiment: Antifungic test, discs method (inhibition diameter); type: cell-based; settings: 72 hours at 37° C.
Method: (§2) CB 619 was tested against Pityrosporum orbiculare 1219 and Pityrosporum ovale 1363, both from the Pasteur Institute, in the Dixon's culture medium, modified by Randjandiche according to the following composition:
(§3) 30 ml of culture medium were cast in each Petri dish of 90 mm of diameter.
(§4) The inoculum was a 2 ml suspension of Pityrosporum containing 10,000,000 germs, 72 hours old, per ml.
(§5) After drying at 37° C., tests were carried out according to discs method or to cylinders method.
(§6) According to the discs method, discs of 6 mm of Antibiotica-Testblattchen Schleider & Schull, reference 2668/2, are soaked in test solution, then set down onto the seeded medium.
(§7) According to both methods, the inhibition areas were measured after a time of incubation of 72 hours at 37° C.
(§8) According to the discs method, Intrinsic Inhibition Power of CB 619 is, the inhibition diameter being given in mm: […]

Pityrosporum ovale 1363 [5] = experiment: as above; type: cell-based; settings: 72 hours at 37° C.
Method: as §2, §3, §4, §5, §6, §7, §8

Mouse = experiment: Acute toxicity in the Mouse (LD 50); type: in vivo; settings: for LD 50: male and female mice, 14 days, Miller and Tainter method
Method: Acute toxicity of CB 619 in the Mouse
The lethal dosis 50% (LD 50) of CB 619 were evaluated when dissolved in bidistilled water and administered by 0.2 to 0.3 ml/kg volumes, monitoring the effect during 14 days.

skin = settings: rabbit, in vivo
Source text: Skin irritation index of CB 619 in the Rabbit
The experiment was made according to the French "Arrete Ministeriel" of the 21th of February 1982 which specifies the official method for the determination Of the skin primary irritation index (SPI).
The official method for the determination of the index of primary cutaneous irritation is described in detail in Annex 1.
The present method is utilized so as to determine the index of primary cutaneous irritation for a cosmetic or bodily hygiene product.
This method is based on the observation of cutaneous reactions provoked through the sole application of the principle.
4.1. Male albino rabbits of defined breed, weighing around 2.5 kg. So as to be perfectly acclimated, the animals must be kept in individual cages for one week prior to the experiment, and; must receive food of invariably balanced composition.
5.1.1. The day before application of the product, shear the back and flanks of the rabbits (4.1) with shears (4.3) so as to clear a surface of about 14 cm×14 cm; proceed with care in order to avoid all irritation. Verify skin condition so as to retain but six animals presenting healthy and clean-shaved skin.
5.1.2. […]
Primary cutaneous irritation must be evaluated around thirty minutes subsequent to removal of the dressing; a second evaluation is to take place 48 hours later, i.e. 72 hours after application of the product. […]

[6] = tested on: lipidic synthesis of the sebaceous gland; experiment: In vitro antiseborrheic properties (14C-acetate incorporation, prepucial gland of the rat); type: cell-based
Method: In vitro antiseborrheic properties of CB 619
According to the experiment, the lipidic metabolic activity of the prepucial gland of the rat was evaluated. The lipidic synthesis of the sebaceous gland was evaluated by adding, as marked precursor, sodium ^14 C-acetate.
CB 619 was tested in comparison with carboxymethylcysteine (CMC) as a reference.

[7] = tested on: wound made by loss of substance; experiment: Cicatrizing activity in the rat (area of wound); type: in vivo
Source text: Cicatrizing activity of CB 619 in the rat
The experiment was to calculate the area of the wound made by loss of substance.

pH of aqueous solution = type: physicochemical; settings: 6% solution in water
eye = settings: rabbit, in vivo
Source text: The experiment was made according to the recommendations of the French "Arrete Ministeriel" of the 21 February 1984 which specifies the official method to determinate the eye irritation (E.I.).
The present method is utilized so as to evaluate the kind and degree of irritation brought about in the eyes by the use of a cosmetic or bodily hygiene product.
The method is based on observation of ocular reaction provoked by the sole instillation of the product.
Directly apply the product in the conjunctival pouch of one of the eyes in the following doses:
Observe the eye of the rabbits one hour, and then 1, 2, 3, 4 and 7 days following the instillation, utilizing the non-instilled eye as a control in order to evaluate possible irritation in the treated eye.
Add up the scores gathered for each of the six rabbits as of each time of observation. One thereby obtains the index of individual ocular irritation: I.O.I.
At each time of observation calculate the average individual ocular irriatation for the six rabbits. One thereby obtains the index of mean ocular irritation: O.I.
Note among the six ocular irritation scores the one with the highest value. One thereby obtains the index of maximum ocular irritation: M.O.I. The time it takes for the latter to appear will be specified in the minutes or report of the experiment.
In an initial approximation, the product is classified in one of the six categories in accordance with the maximum ocular irritation scores.
In a second evaluation, the persistence of lesions intervenes as a corrective of the preceding classification; the ocular irritation and individual ocular irritation scores at different times are taken into account:

skin of Guinea Pig [8] = settings: in vivo
Source text: The experiment was made according to the technical sheet No. 44 (J. Pharmacol. Paris, 1978, 9, 1, 103-6) which conforms to the Magnusson and Kligmann technique.
This sensibilization test according to Magnusson and Kligmann is described in detail in annex 3.
This test is designed to create a delayed allergic reaction in the guinea pig.
Female albino Hartley-breed guinea pigs weighing between 300 and 500 grams.
For the intradermic tract, the product is placed in solution or suspension in bidistilled water, or a suitable solvent. Intradermic injections of 0.1 ml are given in the preliminarily sheared and shaved dorsal region of four albino guinea pigs in increased concentrations. […] The reading of possible reactions takes place after 24 hours. […] If this is not the case, the scale utilized will depend on the maximum non-irritating concentration (MNIC), whose determination may require a second series of tests with concentrations to be determined in accordance with the results of the first.
The same procedures are used for the external cutaneous tract, with the product being placed, in certain cases, in suspension or solution in vaseline. […] Readings are taken one hour following removal of the pads. […]
Readings of local reactions take place 24 and 48 hours following removal of the pad. […]

cicatrization of wounds = settings: normal animal, without zinc deficiency; Favier et al. 1980; cited from earlier work

Nc1ccc(N)cc1 [Diamine paraphenylene]
Class. (degree of allergenicity) (skin of Guinea Pig [1]; reading 24): V (81-100) | Number of animals with Note 0 (skin of Guinea Pig [1]; reading 24): 3 | Number of animals with Note 1 (skin of Guinea Pig [1]; reading 24): 13 | Number of animals with Note 2 (skin of Guinea Pig [1]; reading 24): 4 | Number of animals with Note 3 (skin of Guinea Pig [1]; reading 24): 0 | Percentage of animals having presented a reaction (skin of Guinea Pig [1]; reading 24): 85% | Class. (degree of allergenicity) (skin of Guinea Pig [1]; reading 48): IV (65-80) | Number of animals with Note 0 (skin of Guinea Pig [1]; reading 48): 4 | Number of animals with Note 1 (skin of Guinea Pig [1]; reading 48): 12 | Number of animals with Note 2 (skin of Guinea Pig [1]; reading 48): 4 | Number of animals with Note 3 (skin of Guinea Pig [1]; reading 48): 0 | Percentage of animals having presented a reaction (skin of Guinea Pig [1]; reading 48): 80%

CCN(CC)CCNC(=O)c1ccc(N)cc1 [Procainamide]
Number of animals with Note 0 (skin of Guinea Pig [1]; reading 24): 6 | Number of animals with Note 1 (skin of Guinea Pig [1]; reading 24): 5 | Number of animals with Note 2 (skin of Guinea Pig [1]; reading 24): 9 | Number of animals with Note 3 (skin of Guinea Pig [1]; reading 24): 0 | Percentage of animals having presented a reaction (skin of Guinea Pig [1]; reading 24): 70% | Number of animals with Note 0 (skin of Guinea Pig [1]; reading 48): 6 | Number of animals with Note 1 (skin of Guinea Pig [1]; reading 48): 5 | Number of animals with Note 2 (skin of Guinea Pig [1]; reading 48): 9 | Number of animals with Note 3 (skin of Guinea Pig [1]; reading 48): 0 | Percentage of animals having presented a reaction (skin of Guinea Pig [1]; reading 48): 70%

OCC(O)CS (stereo not shown) [Thioglycerol]
Class. (degree of allergenicity) (skin of Guinea Pig [1]; reading 24): III (29-64) | Number of animals with Note 0 (skin of Guinea Pig [1]; reading 24): 7 | Number of animals with Note 1 (skin of Guinea Pig [1]; reading 24): 9 | Number of animals with Note 2 (skin of Guinea Pig [1]; reading 24): 3 | Number of animals with Note 3 (skin of Guinea Pig [1]; reading 24): 0 | Percentage of animals having presented a reaction (skin of Guinea Pig [1]; reading 24): 63% | Class. (degree of allergenicity) (skin of Guinea Pig [1]; reading 48): III (29-64) | Number of animals with Note 0 (skin of Guinea Pig [1]; reading 48): 11 | Number of animals with Note 1 (skin of Guinea Pig [1]; reading 48): 8 | Number of animals with Note 2 (skin of Guinea Pig [1]; reading 48): 0 | Number of animals with Note 3 (skin of Guinea Pig [1]; reading 48): 0 | Percentage of animals having presented a reaction (skin of Guinea Pig [1]; reading 48): 45%

N[C@@H](CS(=O)(=O)O)C(=O)[O-].N[C@@H](CS(=O)(=O)O)C(=O)[O-].O.O.[Zn+2] [CB 619, dihydrate of the zinc salt of L-cysteic acid]
Intrinsic Inhibition Power, inhibition diameter ([2]; concentration of 2%): 10 mm | Intrinsic Inhibition Power, inhibition diameter ([2]; saturated solution): 11 mm | Intrinsic Inhibition Power, inhibition diameter (Pityrosporum ovale 1363 [3]; concentration of 2%): 10 mm | Intrinsic Inhibition Power, inhibition diameter (Pityrosporum ovale 1363 [3]; saturated solution): 11 mm | Intrinsic Inhibition Power, inhibition diameter ([4]; 1 mg): 6 mm | Intrinsic Inhibition Power, inhibition diameter ([4]; 2 mg): 7 mm | Intrinsic Inhibition Power, inhibition diameter ([4]; 3 mg): 9 mm | Intrinsic Inhibition Power, inhibition diameter ([4]; 4 mg): 11 mm | Intrinsic Inhibition Power, inhibition diameter ([4]; 5 mg): 13 mm | Intrinsic Inhibition Power, inhibition diameter (Pityrosporum ovale 1363 [5]; 1 mg): 6 mm | Intrinsic Inhibition Power, inhibition diameter (Pityrosporum ovale 1363 [5]; 2 mg): 7 mm | Intrinsic Inhibition Power, inhibition diameter (Pityrosporum ovale 1363 [5]; 3 mg): 9 mm | Intrinsic Inhibition Power, inhibition diameter (Pityrosporum ovale 1363 [5]; 4 mg): 11 mm | Intrinsic Inhibition Power, inhibition diameter (Pityrosporum ovale 1363 [5]; 5 mg): 13 mm | LD 50 (Mouse; intraperitoneally): 100 ± 13 mg/kg | Signs at the toxic dosis (Mouse; mouse, toxic dosis): animals become isolated in their cage; also recorded: Their hair stands up and they move with difficulty; also recorded: No diarrhea was observed | LD 50 (Mouse; orally): 1650 ± 60 mg/kg | Skin irritation classification (skin): non-irritant | Skin primary irritation index (SPI) (skin): 0.1666 | Inhibition of the lipidic synthesis ([6]; 10^-3 M): 41.8% | Antiseborrheic activity compared with carboxymethylcysteine ([6]; 10^-3 M, CB 619 versus CMC): the more active | Inhibition of the lipidic synthesis ([6]; 10^-4 M): 33.7% | Cicatrization ([7]; 3% in a 2% carbopol gel): enhances cicatrization | Cicatrization ([7]; 10% in a 2% carbopol gel): no more active | pH of a 6% solution (pH of aqueous solution): about 6.30 | Eye irritation (E.I.) (eye): under 2 | Eye irritation classification (eye): very weakly irritant | Maximum eye irritation (eye): 5.83 | Allergenicity (sensibilization) (skin of Guinea Pig [8]): no allergenic properties | Cell multiplication (human fibroblast cells; 1 and 5 microgram/ml): increases the 5 cell multiplication in accordance with the concentration | Significance of increase in cell multiplication (days) (human fibroblast cells; 1 microgram/ml): significant on the sixth day | Significance of increase in cell multiplication (days) (human fibroblast cells; 5 microgram/ml): on the fourth, sixth and eighth days | Solubility in water: ~6 weight-percent by volume

carboxymethylcysteine [CMC]
Inhibition of the lipidic synthesis ([6]; 10^-3 M): 24.5% | Inhibition of the lipidic synthesis ([6]; 10^-4 M): 5.9%

[Zn] [zinc]
Cicatrization (cicatrization of wounds): does not accelerate the cicatrization

CCOC(=O)c1ccc(N)cc1 [Benzocaine]
Class. (degree of allergenicity) (skin of Guinea Pig [1]; reading 24): II (9-28) | Number of animals with Note 0 (skin of Guinea Pig [1]; reading 24): 17 | Number of animals with Note 1 (skin of Guinea Pig [1]; reading 24): 3 | Number of animals with Note 2 (skin of Guinea Pig [1]; reading 24): 0 | Number of animals with Note 3 (skin of Guinea Pig [1]; reading 24): 0 | Percentage of animals having presented a reaction (skin of Guinea Pig [1]; reading 24): 15% | Class. (degree of allergenicity) (skin of Guinea Pig [1]; reading 48): II (9-28) | Number of animals with Note 0 (skin of Guinea Pig [1]; reading 48): 17 | Number of animals with Note 1 (skin of Guinea Pig [1]; reading 48): 3 | Number of animals with Note 2 (skin of Guinea Pig [1]; reading 48): 0 | Number of animals with Note 3 (skin of Guinea Pig [1]; reading 48): 0 | Percentage of animals having presented a reaction (skin of Guinea Pig [1]; reading 48): 15%
